One compound from patent US20240189285A1, “COMPOSITION AND METHOD FOR ENHANCING MITOCHONDRIAL BIOGENESIS AND ACTIVATING PGC-1A” (NANJING NUTRABUILDING BIO-TECH CO., LTD., priority 2021, published 2024) can be followed below.

Common to all, as to assay type: cell-based
Assay [1] concerns target cells (endothelial cells, C2C12 skeletal muscle cells, etc.). The assay is described as follows: Mitochondrial biogenesis in vitro: mitochondrial mass (flow cytometry, fluorescent microscopy) and mtDNA copy number (quantitative PCR). The protocol: (§1) Target cells (endothelial cells, C2C12 skeletal muscle cells, etc.) are obtained according to conventional methods in the art.
The target cells (endothelial cells, C2C12 skeletal muscle cells, etc.) were divided into groups A, B, C and D. B and D group cells were cultured with 50 μM L-Ergothioneine for 12 hours. A and C groups were not cultured with Ergothioneine but only with the usual nutrient solution for 12 hours. Then a certain concentration of H2O2 was used to cause C and D group cells damage, no H2O2 was used on A and B groups. Mitochondrial biogenesis was measured by quantifying both mitochondrial mass and mitochondrial DNA (mtDNA) contents. Mitochondrial mass was measured by flow cytometry and fluorescent microscopy, mtDNA copy number was analyzed by quantitative PCR.

The test system of assay [2] is PGC-1α. The assay is described as follows: PGC-1α protein expression by Western blot in target cells. How it is done: as §1
(§2) The target cells (endothelial cells, C2C12 skeletal muscle cells, etc.) are divided into groups A, B, C and D. B and D group cells were cultured with 50 μM L-Ergothioneine for 12 hours, and A and C groups were not cultured with Ergothioneine but only with the usual nutrient solution for 12 hours. Then a certain concentration of H2O2 was used to cause C and D group cells damage, no H2O2 was used on A and B groups. Then PGC-1α protein expression and Sirt1 protein level were analyzed by Western blot.

Assay [3] has as its system Sirt1. The assay is described as follows: Sirt1 protein level by Western blot in target cells. The protocol:
as §1, §2
(Immunoblotting shows a protein as a band on a membrane.)

[4] abbreviates: group B: 50 μM L-Ergothioneine for 12 hours, no H2O2, untreated group A = 100.

Consider `C[N+](C)(C)[C@@H](Cc1c[nH]c(=S)[nH]1)C(=O)[O-]` [L-Ergothioneine], for which the Relative mitochondrial mass in assay [1] (setting [4]) is recorded as 112%; in assay [1] (group D: 50 μM L-Ergothioneine for 12 hours, then H2O2 damage, H2O2-only group C = 78), 90%. Besides, the “Relative mtDNA content” value in assay [1] (setting [4]) was 118%; in assay [1] (group D: 50 μM L-Ergothioneine for 12 hours, then H2O2 damage, H2O2-only group C = 89), 93%. Further, the “PGC-1α level (Western blot)” value in assay [2] (group B: 50 μM L-Ergothioneine for 12 hours, no H2O2, untreated group A about 0.0046) was approximately 0.005; in assay [2] (group D: 50 μM L-Ergothioneine for 12 hours, then H2O2 damage, H2O2-only group C about 0.0036) it was approximately 0.0043. The “Sirt1 level (Western blot)” value is given as approximately 0.85 in assay [3] (group B: 50 μM L-Ergothioneine for 12 hours, no H2O2, untreated group A about 0.79) and approximately 0.75 in assay [3] (group D: 50 μM L-Ergothioneine for 12 hours, then H2O2 damage, H2O2-only group C about 0.65).
